Reference: EP0267050B1, “Aerosols containg liposomes and method for their preparation” (priority 1986, dated 1988)

What was measured:
[1] = system: adrenergic; experiment: Effects in vitro on muscle: receptor activation; set-up: species or system rats; settings: rat muscle in vitro, 10⁻⁵ to 10⁻⁸M
Experimental: (§1) Effects in vitro on muscle. Muscle from many organs of rats was tested with 10⁻⁵ to 10⁻⁸M enviroxime.

[2] = system: histamine; experiment: Effects in vitro on muscle: receptor activation; set-up: species or system rats; settings: rat muscle in vitro, 10⁻⁵ to 10⁻⁸M
Experimental: as §1

[3] = system: prostaglandin E2; experiment: Effects in vitro on muscle: receptor activation; set-up: species or system rats; settings: rat muscle in vitro, 10⁻⁵ to 10⁻⁸M
Experimental: as §1

[4] = system: Muscle from many organs of rats; experiment: Effects in vitro on muscle: antagonism of dose response curves; settings: rat muscle in vitro, 10⁻⁵ to 10⁻⁸M; similar to that of potassium chloride
Experimental: as §1

[5] = Animal tolerance: effects on electrolytes and urine output; format: in vivo; settings: rats
Description: Effects on electrolytes. […] The oliguria was associated with increases in potassium in serum but not sodium.

[6] = Animal tolerance: effects of oral doses in mice; format: in vivo
[7] = system: primary antibody response; format: in vivo; settings: mice
[8] = Animal tolerance: cardiovascular effects in cats; format: in vivo
Experimental: (§2) Effects on cats and dogs. […] Plasma concentrations of enviroxime were 3.0, 8.9 and 19 µg/mL following these I.V. doses. Bioassay (antiviral) and biochemical assay of blood yielded similar results.

[9] = Animal tolerance: diastolic blood pressure in dogs; format: in vivo; settings: following 1, 3, and 10 mg/kg I.V. doses
Experimental: as §2

[10] = Plasma concentration after I.V. doses; format: in vivo, dogs
Experimental: as §2

[11] = system: rhinoviruses; settings: all rhinoviruses tested; generally range; cited from earlier work
[12] = system: polioviruses; settings: cited from earlier work
[13] = system: echoviruses; settings: cited from earlier work
[14] = system: coxsackieviruses; settings: cited from earlier work
[15] = system: cells in culture; settings: cited from earlier work
[16] = cited from earlier work
[17] = associated with the oliguria at 25 mg/kg and above

CC(C)S(=O)(=O)n1c(N)nc2ccc(/C(=N/O)c3ccccc3)cc21 [enviroxime]
activation of adrenergic receptors [1]: did not activate
activation of histamine receptors [2]: did not activate
activation of prostaglandin E2 receptors [3]: did not activate
antagonism of dose response curves [4]: some non-competitive antagonism
potassium in serum [5, 17]: increases
sodium in serum [5, 17]: not
oliguria ([5]; dose of 25 mg/kg and above): significant oliguria
effects in mice ([6]; 50 mg/kg orally): no detectable effects
effects in mice ([6]; higher doses, 100-400 mg/kg): increasing leg weakness, decreased motor activity and gait disturbances
onset of the effect of high doses ([6]; mice, high doses): within a few minutes
tolerance of oral doses ([6]; oral doses up to 100 mg/kg, a number of other tests): well tolerated
immune suppressive activity on primary antibody response [7]: no immune suppressive activity
cardiovascular effects [8]: no significant cardiovascular effects
diastolic blood pressure [9]: some stepwise depression
Plasma concentrations ([10]; following 1 mg/kg I.V. dose): 3000 ng/mL
Plasma concentrations ([10]; following 3 mg/kg I.V. dose): 8900 ng/mL
Plasma concentrations ([10]; following 10 mg/kg I.V. dose): 19000 ng/mL
inhibitory concentrations [11]: 0.3 to 0.9 µg/mL
activity against polioviruses [12]: active
activity against echoviruses [13]: active
activity against coxsackieviruses [14]: active
Maximum tolerated concentrations for cells in culture [15]: 4 to 100 µg/mL
soluble in water [16]: 1 to 2 µg/mL
